In patent US8598128B2, “Fructosylated puerarin, and preparation method and use thereof” (priority 2010, dated 2013):
Entries after “also recorded” stand apart in the source; their conditions may differ.

Tests used:
myocardio ischemia mice [1] = assay: T wave amplitude variation in pituitrin acute myocardial ischemia model; format: in vivo, Sprague-Dawley mice (SD mice)
From the text: (§1) Embodiment 6: […] Pituitrin injection was purchased from Nanjing Xinbai Pharmaceutical Co., Ltd., normal saline injection from Nanjing Xiaoying Pharmaceutical Co., Ltd., and DMSO, PG, and anhydrous ethanol were of chromatographic class. […] The data were presented with, and tested with t. P<0.05 indicates substantial difference, P<0.01 indicates very substantial difference; and P<0.001 indicates extremely substantial difference.

myocardio ischemia mice [2] = assay: Heart rate in pituitrin acute myocardial ischemia model; format: in vivo, Sprague-Dawley mice (SD mice)
From the text: as §1

**Q.** What does the source list for `O=c1c(-c2ccc(O)cc2)coc2c([C@@H]3O[C@H](CO[C@]4(CO)O[C@H](CO)[C@@H](O)[C@@H]4O)[C@@H](O)[C@H](O)[C@H]3O)c(O)ccc12` [monofructosyl-β(2,6)-puerarin]?
**A.** T wave amplitude variation (myocardio ischemia mice [1]; 12.5 mg/kg, 15 s after Pit): 0.082 ± 0.060 mv; T wave amplitude variation (myocardio ischemia mice [1]; 12.5 mg/kg, 30 s after Pit): 0.097 ± 0.084 mv; T wave amplitude variation (myocardio ischemia mice [1]; 12.5 mg/kg, 1 min after Pit): 0.051 ± 0.034 mv; T wave amplitude variation (myocardio ischemia mice [1]; 12.5 mg/kg, 2 min after Pit): 0.102 ± 0.071 mv; T wave amplitude variation (myocardio ischemia mice [1]; 12.5 mg/kg, 5 min after Pit): 0.069 ± 0.040 mv; T wave amplitude variation (myocardio ischemia mice [1]; 12.5 mg/kg, 10 min after Pit): 0.068 ± 0.038 mv; T wave amplitude variation (myocardio ischemia mice [1]; 25 mg/kg, 15 s after Pit): 0.053 ± 0.027 mv; T wave amplitude variation (myocardio ischemia mice [1]; 25 mg/kg, 30 s after Pit): 0.105 ± 0.076 mv; T wave amplitude variation (myocardio ischemia mice [1]; 25 mg/kg, 1 min after Pit): 0.116 ± 0.088 mv; T wave amplitude variation (myocardio ischemia mice [1]; 25 mg/kg, 2 min after Pit): 0.112 ± 0.087 mv; T wave amplitude variation (myocardio ischemia mice [1]; 25 mg/kg, 5 min after Pit): 0.067 ± 0.038 mv; T wave amplitude variation (myocardio ischemia mice [1]; 25 mg/kg, 10 min after Pit): 0.054 ± 0.038 mv; T wave amplitude variation (myocardio ischemia mice [1]; 50 mg/kg, 15 s after Pit): 0.092 ± 0.067 mv; T wave amplitude variation (myocardio ischemia mice [1]; 50 mg/kg, 30 s after Pit): 0.118 ± 0.087 mv; T wave amplitude variation (myocardio ischemia mice [1]; 50 mg/kg, 1 min after Pit): 0.109 ± 0.084 mv; T wave amplitude variation (myocardio ischemia mice [1]; 50 mg/kg, 2 min after Pit): 0.106 ± 0.091 mv; T wave amplitude variation (myocardio ischemia mice [1]; 50 mg/kg, 5 min after Pit): 0.080 ± 0.070 mv; T wave amplitude variation (myocardio ischemia mice [1]; 50 mg/kg, 10 min after Pit): 0.082 ± 0.058 mv; effect against myocardial ischemia (T wave) in words (myocardio ischemia mice [1]; 12.5, 25 and 50 mg/kg, compared with puerarin): can better resist myocardial ischemia than puerarin; also recorded: has better effect to resist myocardio ischemia than puerarin; Heart rate (myocardio ischemia mice [2]; 12.5 mg/kg, 5 s): 433 ± 63 time · min^−1; Heart rate (myocardio ischemia mice [2]; 12.5 mg/kg, 10 s): 416 ± 79 time · min^−1; Heart rate (myocardio ischemia mice [2]; 12.5 mg/kg, 15 s): 411 ± 75 time · min^−1; Heart rate (myocardio ischemia mice [2]; 12.5 mg/kg, 30 s): 389 ± 72 time · min^−1; Heart rate (myocardio ischemia mice [2]; 12.5 mg/kg, 1 min): 347 ± 71 time · min^−1; Heart rate (myocardio ischemia mice [2]; 12.5 mg/kg, 2 min): 339 ± 57 time · min^−1; Heart rate (myocardio ischemia mice [2]; 12.5 mg/kg, 5 min): 349 ± 50 time · min^−1; Heart rate (myocardio ischemia mice [2]; 12.5 mg/kg, 10 min): 395 ± 45 time · min^−1; Heart rate (myocardio ischemia mice [2]; 12.5 mg/kg, Normal): 403 ± 54 time · min^−1; Heart rate (myocardio ischemia mice [2]; 25 mg/kg, 5 s): 476 ± 65 time · min^−1; Heart rate (myocardio ischemia mice [2]; 25 mg/kg, 10 s): 442 ± 81 time · min^−1; Heart rate (myocardio ischemia mice [2]; 25 mg/kg, 15 s): 405 ± 88 time · min^−1; Heart rate (myocardio ischemia mice [2]; 25 mg/kg, 30 s): 428 ± 65 time · min^−1; Heart rate (myocardio ischemia mice [2]; 25 mg/kg, 1 min): 403 ± 54 time · min^−1; Heart rate (myocardio ischemia mice [2]; 25 mg/kg, 2 min): 386 ± 41 time · min^−1; Heart rate (myocardio ischemia mice [2]; 25 mg/kg, 5 min): 375 ± 37 time · min^−1; Heart rate (myocardio ischemia mice [2]; 25 mg/kg, 10 min): 420 ± 43 time · min^−1; Heart rate (myocardio ischemia mice [2]; 25 mg/kg, Normal): 474 ± 68 time · min^−1; Heart rate (myocardio ischemia mice [2]; 50 mg/kg, 5 s): 485 ± 95 time · min^−1; Heart rate (myocardio ischemia mice [2]; 50 mg/kg, 10 s): 423 ± 84 time · min^−1; Heart rate (myocardio ischemia mice [2]; 50 mg/kg, 15 s): 420 ± 76 time · min^−1; Heart rate (myocardio ischemia mice [2]; 50 mg/kg, 30 s): 378 ± 34 time · min^−1; Heart rate (myocardio ischemia mice [2]; 50 mg/kg, 1 min): 327 ± 89 time · min^−1; Heart rate (myocardio ischemia mice [2]; 50 mg/kg, 2 min): 339 ± 45 time · min^−1; Heart rate (myocardio ischemia mice [2]; 50 mg/kg, 5 min): 347 ± 55 time · min^−1; Heart rate (myocardio ischemia mice [2]; 50 mg/kg, 10 min): 435 ± 72 time · min^−1; Heart rate (myocardio ischemia mice [2]; 50 mg/kg, Normal): 483 ± 91 time · min^−1; effect on heart rate restoration in words (myocardio ischemia mice [2]; 12.5, 25 and 50 mg/kg): has certain therapy effect on the heart disorder caused by myocardial ischemia; also recorded: has certain therapy effect on the heart disorder caused by myocardio ischemia
